Reference: patent US20250019387A1 (Frontier Medicines Corporation, priority 0001, published 2025)

The compounds below were run against KRAS G12C and cRAF (Ras-binding domain) interaction (Homo sapiens (Human), UniProt P01116, C118S/C51S/C80L/G12C) (assay: Inhibition of KRAS G12C and cRAF binding (AlphaScreen)). Conditions: GMPPNP-loaded KRAS G12C, 19-20 hours incubation with compound; read-out: IC50 (Inhibition of KRAS G12C and cRAF Binding).
Summary of the method: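 Compounds (DMSO) preincubated 19-20 h at room temperature, then RBD with streptavidin donor and glutathione acceptor beads added in 25 mM Hepes pH 7.4, 150 mM NaCl, 5 mM MgCl2, 0.01% Triton X-100, 2% DMSO for 60-90 min. Emission 570 nm (excitation 680 nm); IC50 by 4-parameter fit. Counter-screen used biotin-AviTag-GST instead of RBD.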

Sequence of KRAS G12C and cRAF (Ras-binding domain) interaction (P01116 other isoform, or with tags, fused parts or gaps G12C/C51S/C80L/C118S): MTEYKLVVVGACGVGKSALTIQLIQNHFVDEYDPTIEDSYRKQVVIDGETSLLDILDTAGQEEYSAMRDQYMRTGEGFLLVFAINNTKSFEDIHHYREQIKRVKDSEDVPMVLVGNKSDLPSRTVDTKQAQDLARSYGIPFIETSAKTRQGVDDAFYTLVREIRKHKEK

SMILES	IC50 [nM]
CN1CC(=CC(=O)N2CC[C@@H](N(C)c3nc(OC[C@@]45CCCN4C[C@H](F)C5)nc4c(F)c(-c5cccc6cccc(Cl)c56)ncc34)C2)C1 [Example 276, 1-((R)-3-((7-(8-chloronaphthalen-1-yl)-8-fluoro-2-(((2R,7aS)-2-fluorotetrahydro-1H-pyrrolizin-7a(5H)-yl)methoxy)pyrido[4,3-d]pyrimidin-4-yl)(methyl)amino)pyrrolidin-1-yl)-2-(1-methylazetidin-3-ylidene)ethan-1-one]	10 to 100
CCc1c(F)ccc2cccc(-c3ncc4c(N(C)[C@@H]5CCN(C(=O)/C=C/c6ccnc(C)n6)C5)nc(OC[C@@]56CCCN5C[C@H](F)C6)nc4c3F)c12 [Example 277, (E)-1-((R)-3-((7-(8-ethyl-7-fluoronaphthalen-1-yl)-8-fluoro-2-(((2R,7aS)-2-fluorohexahydro-1H-pyrrolizin-7a-yl)methoxy)pyrido[4,3-d]pyrimidin-4-yl)(methyl)amino)pyrrolidin-1-yl)-3-(2-methylpyrimidin-4-yl)prop-2-en-1-one]	100 to 500
C#Cc1c(F)ccc2cccc(-c3ncc4c(N(C)[C@@H]5CCN(C(=O)/C=C/c6ccnc(C)n6)C5)nc(OC[C@@]56CCCN5C[C@H](F)C6)nc4c3F)c12 [Example 278, (E)-1-((R)-3-((7-(8-ethynyl-7-fluoronaphthalen-1-yl)-8-fluoro-2-(((2R,7aS)-2-fluorotetrahydro-1H-pyrrolizin-7a(5H)-yl)methoxy)pyrido[4,3-d]pyrimidin-4-yl)(methyl)amino)pyrrolidin-1-yl)-3-(2-methylpyrimidin-4-yl)prop-2-en-1-one]	10 to 100
CCc1c(F)ccc2cccc(-c3ncc4c(N(C)[C@@H]5CCN(C(=O)/C=C/c6cc(C)nc(C)n6)C5)nc(OC[C@@]56CCCN5C[C@H](F)C6)nc4c3F)c12 [Example 279, (E)-3-(2,6-dimethylpyrimidin-4-yl)-1-((R)-3-((7-(8-ethyl-7-fluoronaphthalen-1-yl)-8-fluoro-2-(((2R,7aS)-2-fluorotetrahydro-1H-pyrrolizin-7a(5H)-yl)methoxy)pyrido[4,3-d]pyrimidin-4-yl)(methyl)amino)pyrrolidin-1-yl)prop-2-en-1-one]	100 to 500
C#Cc1c(F)ccc2cccc(-c3ncc4c(N(C)CC5CN(C(=O)/C=C/c6cc(C)nc(C)n6)C5)nc(OC[C@@]56CCCN5C[C@H](F)C6)nc4c3F)c12 [Example 280, (E)-3-(2,6-dimethylpyrimidin-4-yl)-1-(3-(((7-(8-ethynyl-7-fluoronaphthalen-1-yl)-8-fluoro-2-(((2R,7aS)-2-fluorotetrahydro-1H-pyrrolizin-7a(5H)-yl)methoxy)pyrido[4,3-d]pyrimidin-4-yl)(methyl)amino)methyl)azetidin-1-yl)prop-2-en-1-one]	10 to 100
Cc1c(F)ccc2c(-c3ncc4c(N(C)[C@@H]5CCN(C(=O)/C=C/CN(C)C)C5)nc(OC[C@@]56CCCN5C[C@H](F)C6)nc4c3F)cccc12 [Example 281, (E)-4-(dimethylamino)-1-((R)-3-((8-fluoro-7-(6-fluoro-5-methylnaphthalen-1-yl)-2-(((2R,7aS)-2-fluorotetrahydro-1H-pyrrolizin-7a(5H)-yl)methoxy)pyrido[4,3-d]pyrimidin-4-yl)(methyl)amino)pyrrolidin-1-yl)but-2-en-1-one]	100 to 500
C=CC(=O)N1C[C@@H](N(C)c2nc(OC[C@@]34CCCN3C[C@H](F)C4)nc3c(F)c(-c4cccc5cccc(Cl)c45)ncc23)C(F)(F)C1 [Example 285, 1-((R)-4-((7-(8-chloronaphthalen-1-yl)-8-fluoro-2-(((2R,7aS)-2-fluorotetrahydro-1H-pyrrolizin-7a(5H)-yl)methoxy)pyrido[4,3-d]pyrimidin-4-yl)(methyl)amino)-3,3-difluoropyrrolidin-1-yl)prop-2-en-1-one]	> 500
C#Cc1c(F)ccc2cccc(-c3ncc4c(N(C)[C@@H]5CCN(C(=O)/C=C/CN6[C@@H]7CC[C@H]6COC7)C5)nc(OC[C@@]56CCCN5C[C@H](F)C6)nc4c3F)c12 [Example 292, (E)-4-((1R,5S)-3-oxa-8-azabicyclo[3.2.1]octan-8-yl)-1-((R)-3-((7-(8-ethynyl-7-fluoronaphthalen-1-yl)-8-fluoro-2-(((2R,7aS)-2-fluorotetrahydro-1H-pyrrolizin-7a(5H)-yl)methoxy)pyrido[4,3-d]pyrimidin-4-yl)(methyl)amino)pyrrolidin-1-yl)but-2-en-1-one]	< 10
C#Cc1c(F)ccc2cccc(-c3ncc4c(N(C)[C@@H]5CCN(C(=O)/C=C/CN6C7COCC6C7)C5)nc(OC[C@@]56CCCN5C[C@H](F)C6)nc4c3F)c12 [Example 293, (E)-4-(3-oxa-6-azabicyclo[3.1.1]heptan-6-yl)-1-((R)-3-((7-(8-ethynyl-7-fluoronaphthalen-1-yl)-8-fluoro-2-(((2R,7aS)-2-fluorotetrahydro-1H-pyrrolizin-7a(5H)-yl)methoxy)pyrido[4,3-d]pyrimidin-4-yl)(methyl)amino)pyrrolidin-1-yl)but-2-en-1-one]	< 10

The remaining lines, values ahead:

IC50 [nM]	SMILES
100 to 500	Cc1c(F)ccc2c(-c3ncc4c(N(C)[C@@H]5CCN(C(=O)/C=C/[C@H]6CCN6C)C5)nc(OC[C@@]56CCCN5C[C@H](F)C6)nc4c3F)cccc12 [Example 282, (E)-1-((R)-3-((8-fluoro-7-(6-fluoro-5-methylnaphthalen-1-yl)-2-(((2R,7aS)-2-fluorotetrahydro-1H-pyrrolizin-7a(5H)-yl)methoxy)pyrido[4,3-d]pyrimidin-4-yl)(methyl)amino)pyrrolidin-1-yl)-3-((R)-1-methylazetidin-2-yl)prop-2-en-1-one]
100 to 500	CCc1c(F)ccc2cccc(-c3ncc4c(N(C)CC5CN(C(=O)/C=C/c6cc(C)nc(C)n6)C5)nc(OC[C@@]56CCCN5C[C@H](F)C6)nc4c3F)c12 [Example 283, (E)-3-(2,6-dimethylpyrimidin-4-yl)-1-(3-(((7-(8-ethyl-7-fluoronaphthalen-1-yl)-8-fluoro-2-(((2R,7aS)-2-fluorotetrahydro-1H-pyrrolizin-7a(5H)-yl)methoxy)pyrido[4,3-d]pyrimidin-4-yl)(methyl)amino)methyl)azetidin-1-yl)prop-2-en-1-one]
10 to 100	C#Cc1c(F)ccc2cccc(-c3ncc4c(N(C)[C@@H]5CCN(C(=O)/C=C/CN6CC[C@H](OC)C6)C5)nc(OC[C@@]56CCCN5C[C@H](F)C6)nc4c3F)c12 [Example 286, (E)-1-((R)-3-((7-(8-ethynyl-7-fluoronaphthalen-1-yl)-8-fluoro-2-(((2R,7aS)-2-fluorotetrahydro-1H-pyrrolizin-7a(5H)-yl)methoxy)pyrido[4,3-d]pyrimidin-4-yl)(methyl)amino)pyrrolidin-1-yl)-4-((S)-3-methoxypyrrolidin-1-yl)but-2-en-1-one]
10 to 100	C#Cc1c(F)ccc2cccc(-c3ncc4c(N(C)[C@@H]5CCN(C(=O)/C=C/CN6CC[C@@H](OC)C6)C5)nc(OC[C@@]56CCCN5C[C@H](F)C6)nc4c3F)c12 [Example 287, (E)-1-((R)-3-((7-(8-ethynyl-7-fluoronaphthalen-1-yl)-8-fluoro-2-(((2R,7aS)-2-fluorotetrahydro-1H-pyrrolizin-7a(5H)-yl)methoxy)pyrido[4,3-d]pyrimidin-4-yl)(methyl)amino)pyrrolidin-1-yl)-4-((R)-3-methoxypyrrolidin-1-yl)but-2-en-1-one]
10 to 100	C#Cc1c(F)ccc2cccc(-c3ncc4c(N(C)[C@@H]5CCN(C(=O)/C=C/CN6CC[C@H](F)C6)C5)nc(OC[C@@]56CCCN5C[C@H](F)C6)nc4c3F)c12 [Example 288, (E)-1-((R)-3-((7-(8-ethynyl-7-fluoronaphthalen-1-yl)-8-fluoro-2-(((2R,7aS)-2-fluorotetrahydro-1H-pyrrolizin-7a(5H)-yl)methoxy)pyrido[4,3-d]pyrimidin-4-yl)(methyl)amino)pyrrolidin-1-yl)-4-((S)-3-fluoropyrrolidin-1-yl)but-2-en-1-one]
10 to 100	C#Cc1c(F)ccc2cccc(-c3ncc4c(N(C)[C@@H]5CCN(C(=O)/C=C/CN6CC[C@@H](F)C6)C5)nc(OC[C@@]56CCCN5C[C@H](F)C6)nc4c3F)c12 [Example 289, (E)-1-((R)-3-((7-(8-ethynyl-7-fluoronaphthalen-1-yl)-8-fluoro-2-(((2R,7aS)-2-fluorotetrahydro-1H-pyrrolizin-7a(5H)-yl)methoxy)pyrido[4,3-d]pyrimidin-4-yl)(methyl)amino)pyrrolidin-1-yl)-4-((R)-3-fluoropyrrolidin-1-yl)but-2-en-1-one]
< 10	C#Cc1c(F)ccc2cccc(-c3ncc4c(N(C)[C@@H]5CCN(C(=O)/C=C/CN6C[C@H]7C[C@@H]6CO7)C5)nc(OC[C@@]56CCCN5C[C@H](F)C6)nc4c3F)c12 [Example 290, (E)-4-((1R,4R)-2-oxa-5-azabicyclo[2.2.1]heptan-5-yl)-1-((R)-3-((7-(8-ethynyl-7-fluoronaphthalen-1-yl)-8-fluoro-2-(((2R,7aS)-2-fluorotetrahydro-1H-pyrrolizin-7a(5H)-yl)methoxy)pyrido[4,3-d]pyrimidin-4-yl)(methyl)amino)pyrrolidin-1-yl)but-2-en-1-one]
< 10	C#Cc1c(F)ccc2cccc(-c3ncc4c(N(C)[C@@H]5CCN(C(=O)/C=C/CN6C[C@@H]7C[C@H]6CO7)C5)nc(OC[C@@]56CCCN5C[C@H](F)C6)nc4c3F)c12 [Example 291, (E)-4-((1S,4S)-2-oxa-5-azabicyclo[2.2.1]heptan-5-yl)-1-((R)-3-((7-(8-ethynyl-7-fluoronaphthalen-1-yl)-8-fluoro-2-(((2R,7aS)-2-fluorotetrahydro-1H-pyrrolizin-7a(5H)-yl)methoxy)pyrido[4,3-d]pyrimidin-4-yl)(methyl)amino)pyrrolidin-1-yl)but-2-en-1-one]
